Measured values published in paper PMC3740683, “ML212: A small-molecule probe for investigating fluconazole resistance mechanisms in Candida albicans” (Beilstein Journal of Organic Chemistry, 2013).
Converted amounts (≈) assume the structure as drawn.

Experiments:
[1] = Plasma stability, murine plasma; assay type: in vitro ADME; conditions: 5 h incubation
C. albicans CaCi-8 = assay: Secondary assay 1: CaCi-8 with 8 µg/mL fluconazole (Alamar Blue growth); assay type: cell-based, Candida albicans; conditions: Candida albicans, CACI8, 48 h, read-out: CaCi-8 IC50
Experimental: All of the compounds prepared above were evaluated for their ability to chemosensitize the C. albicans test strains CaCi-2 and CaCi-8 towards fluconazole. […] The DMSO/fluconazole combination served as an internal control. […]
(1/OD measured) × (desired final volume of inoculum) × 0.3 = volume of fungal culture (µL) to add to desired volume of growth medium. When added to media in wells, this yields a calculated starting OD of the fungal inoculum of 0.00015. […]
3) Use a Thermo Combi nL to dispense 20 µL/well of assay media into all wells. […]
EnVision (Perkin Elmer) plate reader setup: Ex 544 nm, Em 590 nm, bandwidth 12 nm, top read.
Secondary assay 1: CaCi-8 with 8 µg/mL fluconazole […]
35808016); geldanamycin (AG Scientific Catalog no. […]
PBS w/o calcium and magnesium (Cellgro Catalog no. 21-040-CV)
Synthetic defined growth medium
RPMI 1640 medium, (powder without sodium bicarbonate; Invitrogen Catalog no. […]
no. 028K0760); glucose 40% (w/v) in water (Sigma Catalog no. G-5400); MOPS buffer […]
1) Prepare 1× RPMI medium by dissolving 10.4 g powdered medium in 800 mL […]
2) Add 34.52 g MOPS. While stirring, adjust pH to 7.0 with 10 N NaOH.
3) Add 10 mL uridine solution, 50 mL glucose solution, adjust final volume to 1000 […]
Test strain: C. albicans CaCi-8
1) Inoculate 500 µL of strain from cryopreserved stock into a 250 mL shaker flask containing 30 mL growth medium. Shake at 30 °C overnight (16 hours).
(§1) 2) Read OD 600 of 1 mL of fungal culture in a cuvette using a standard optical density reader (Eppendorf BioPhotometer Plus), with growth medium as a […]
3) Dilute to a desired volume of fungal inoculum according to following formula: […]
1) Add fluconazole stock solution to fungal inoculum to achieve 8 µg/mL.
2) Add Pen/Strep to media to 1% concentration.
4) Dispense geldanamycin in positive control wells using Thermo Combi nL for a final concentration of 3 µM.
(§2) 5) Then, pin 100 nL of test compound from compound plates into assay plates using a CyBi-Well pin tool.
(§3) 6) Dispense 20 µL/well of culture into the assay media in all wells.
(§4) 7) Incubate the plates in a humidified (90% humidity) Liconic incubator at 37 °C without agitation for 48 hours.
(§5) 8) Dilute Alamar Blue 1:40 in Ca/Mg-free PBS.
(§6) 9) To all plates, add 5 µL/well of the diluted Alamar Blue to plates to a final dilution […]
10) Incubate the plates for 2 hours. […]

[2] = test system: Hsp90-dependent signaling pathway; assay: Yeast-reporter assay, Hsp90-dependent signaling pathway; assay type: cell-based; conditions: Saccharomyces cerevisiae
C. albicans CaCi-2 = assay: Secondary assay 2: CaCi-2 in the absence of fluconazole; assay type: cell-based; conditions: Candida albicans, CACI2; no fluconazole, 48 h incubation; read-out: IC50 against C. albicans in the absence of fluconazole
Experimental: as §2, §3, §4, §5, §6
10) Incubate the plates for 2 hours.
11) Read the relative fluorescence intensity (RFU) of wells on a standard plate reader as a measure of relative fungal growth. EnVision (Perkin Elmer) plate reader setup: Ex 544 nm, Em 590 nm, bandwidth 12 nm, top read.
Secondary assay 2: CaCi-2 in the absence of fluconazole
Clear, flat-bottom, black 384-well plates (Corning Catalog no. 3712BC; Lot no.
35808016); geldanamycin (AG Scientific Catalog no. G-1047) 15 mM stock solution in […]
as §1
measured) × (desired final volume of inoculum) × 0.3 = volume of fungal culture […]
this yields a calculated starting OD of the fungal inoculum of 0.00015. […]
11) Read relative fluorescence intensity (RFU) of wells on a standard plate reader as […]
measure of relative fungal growth. EnVision (Perkin Elmer) plate reader settings: […]

Solubility in PBS = assay type: physicochemical; conditions: aqueous buffer
[3] = test system: calcineurin-dependent signaling pathway; assay: Yeast-reporter assay, calcineurin-dependent signaling pathway; assay type: cell-based; conditions: Saccharomyces cerevisiae

COC(=O)Cn1nc(-c2cccc(OC)c2)c2ccccc21 [Compound 36]
remaining after incubation in plasma [1]: < 10%
IC50 (C. albicans CaCi-8): 1.5 ± 0.6 µM
IC50 [2]: > 26 µM
IC50 (C. albicans CaCi-2): > 26 µM
solubility (Solubility in PBS): 55 µM (≈ 16.3 µg/mL)
IC50 [3]: > 26 µM
